These results are taken from patent publication US20250268917A1, “PHARMACEUTICAL COMPOSITIONS AND METHODS FOR PREVENTION AND/OR TREATMENT OF INFLAMMATION” (REVEN PHARMACEUTICALS INC., priority 2020, published 2025).

For test [1] the following is noted: equivalent to dexamethasone 0.75 mg; cited from earlier work.
Another test deals with LPS-GalN challenged mice. The experiment in a line: LPS-GalN model of fatal cytokine storm and sepsis; RJX, DEX or RJX+DEX 2 hours post LPS-GalN. The test is classed as in vivo, BALB/c mice. The following applies: for Censored: alive at 24 h; for Events: deaths within 24 h.
[2] abbreviates: RJX 0.7 ml/kg (n=20), DEX 0.6 mg/kg (n=10), or both (n=20).

`C[C@]12CCC(=O)C=C1CC[C@@H]1[C@@H]2[C@@H](O)C[C@@]2(C)[C@H]1CC[C@]2(O)C(=O)CO` [Hydrocortisone]: the “Approximate Equivalent Dose” value in test [1] is 20 mg.
For `C[C@@H]1C[C@H]2[C@@H]3CCC4=CC(=O)C=C[C@]4(C)[C@@]3(F)[C@@H](O)C[C@]2(C)[C@@]1(O)C(=O)CO` [DEX, dexamethasone], the Censored came to 1 in the test on LPS-GalN challenged mice (DEX 0.1 mg/kg i.p. 2 h post LPS-GalN, n=6); 3 in the test with LPS-GalN challenged mice (DEX 0.6 mg/kg i.p. 2 h post LPS-GalN, n=6); 4 in the test with LPS-GalN challenged mice (DEX 6.0 mg/kg i.p. 2 h post LPS-GalN, n=6); 5 in the test on LPS-GalN challenged mice (RJX 0.7 ml/kg (n=20), DEX 0.6 mg/kg (n=10), or both (n=20) 2 h post LPS-GalN). Besides, the Median survival is 5.1 h in the test on LPS-GalN challenged mice (DEX 0.1 mg/kg, n=6) and 15.0 h with LPS-GalN challenged mice (DEX 0.6 mg/kg, n=6). For the same compound, the “Proportion (24-h mortality)” value in the test on LPS-GalN challenged mice (DEX 0.1 mg/kg, n=6) was 83.3%. In addition, the Events in the test on LPS-GalN challenged mice (DEX 0.1 mg/kg, n=6) stood at 5; with LPS-GalN challenged mice (DEX 0.6 mg/kg, n=6), 3; in the test on LPS-GalN challenged mice (DEX 6.0 mg/kg, n=6), 2; in the test on LPS-GalN challenged mice (setting [2]) it was 5. Further, the “Proportion (mortality)” value in the test on LPS-GalN challenged mice (DEX 0.6 mg/kg, n=6) stood at 50.0%; with LPS-GalN challenged mice (DEX 6.0 mg/kg, n=6), 33.3%; in the test with LPS-GalN challenged mice (setting [2]), 50.0%. In the test with LPS-GalN challenged mice (RJX 0.7 ml/kg, DEX 6.0 mg/kg, alone or combined, n=6), the “lung histopathological ALI scores, range” value is 1-3. For the same compound, in the test on LPS-GalN challenged mice (single dose at 2 hours post-LPS-GalN, sacrificed at 24 hours, FIG. 20), the “ALI score of representative mouse” value is 2.
As for `C[C@]12C=CC(=O)C=C1CC[C@H]1[C@@H]3C[C@@H](O)[C@](O)(C(=O)CO)[C@@]3(C)C[C@H](O)[C@@]12F` [Triamcinolone], in test [1], the “Approximate Equivalent Dose” value is given as 4 mg.
As to `C[C@]12CCC(=O)C=C1CC[C@@H]1[C@@H]2C(=O)C[C@@]2(C)[C@H]1CC[C@]2(O)C(=O)CO` [Cortisone], the “Approximate Equivalent Dose” value in test [1] is 25 mg.
Regarding `C[C@]12C=CC(=O)C=C1CC[C@@H]1[C@@H]2[C@@H](O)C[C@@]2(C)[C@H]1CC[C@]2(O)C(=O)CO` [Prednisolone], in test [1], the “Approximate Equivalent Dose” value is 5 mg.
